Data: the supplement of paper PMC10307832

What was measured:
Assay in all cases: relative viability (nuclei count vs DMSO), 5 days (fraction); higher = more cells survive
KN-93 + Bortezomib = compound: CN(C/C=C/C1=CC=C(C=C1)Cl)CC2=CC=CC=C2N(CCO)S(=O)(=O)C3=CC=C(C=C3)OC [KN-93] + CC(C)C[C@H](NC(=O)[C@H](Cc1ccccc1)NC(=O)c1cnccn1)B(O)O [Bortezomib] (partner 0.002 µM)
Summary of the method: (§1)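 Relative viability divides the nuclei count in treated wells by that in vehicle wells. Lung cancer cell lines were seeded in 1536-well plates, dosed by pin tool the next day, and fixed and stained after 5 days in one step with final 0.05% Triton X-100, 1% formaldehyde and 1 ug/ml Hoechst. Dosing was a single drug or a fixed anchor-drug dose plus five library-drug doses (not always all listed) in √10 steps, and values are medians of duplicate plates imaged at 4×.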

KN-93 + OSI-027 = compound: CN(C/C=C/C1=CC=C(C=C1)Cl)CC2=CC=CC=C2N(CCO)S(=O)(=O)C3=CC=C(C=C3)OC [KN-93] + COc1cccc2cc(-c3nc([C@H]4CC[C@H](C(=O)O)CC4)n4ncnc(N)c34)[nH]c12 [OSI-027] (partner 0.5 µM)
Summary of the method: as §1

KN-93 + Crizotinib = compound: CN(C/C=C/C1=CC=C(C=C1)Cl)CC2=CC=CC=C2N(CCO)S(=O)(=O)C3=CC=C(C=C3)OC [KN-93] + C[C@@H](Oc1cc(-c2cnn(C3CCNCC3)c2)cnc1N)c1c(Cl)ccc(F)c1Cl [Crizotinib] (partner 1 µM)
Summary of the method: as §1

KN-93 + Pemetrexed = compound: CN(C/C=C/C1=CC=C(C=C1)Cl)CC2=CC=CC=C2N(CCO)S(=O)(=O)C3=CC=C(C=C3)OC [KN-93] + Nc1nc2[nH]cc(CCc3ccc(C(=O)N[C@@H](CCC(=O)O)C(=O)O)cc3)c2c(=O)[nH]1 [Pemetrexed] (partner 0.2 µM)
Summary of the method: as §1

KN-93 + Decitabine = compound: CN(C/C=C/C1=CC=C(C=C1)Cl)CC2=CC=CC=C2N(CCO)S(=O)(=O)C3=CC=C(C=C3)OC [KN-93] + Nc1ncn([C@H]2C[C@H](O)[C@@H](CO)O2)c(=O)n1 [Decitabine] (partner 2 µM)
Summary of the method: as §1

Row | Cell Line | relative viability (KN-93 + Bortezomib; first compound 0.08 µM) | relative viability (KN-93 + Bortezomib; first compound 0.253 µM) | relative viability (KN-93 + Bortezomib; first compound 2.53 µM) | relative viability (KN-93 + Bortezomib; first compound 8 µM) | relative viability (KN-93 + OSI-027; first compound 0.08 µM) | relative viability (KN-93 + OSI-027; first compound 0.253 µM) | relative viability (KN-93 + OSI-027; first compound 2.53 µM) | relative viability (KN-93 + OSI-027; first compound 8 µM) | relative viability (KN-93 + Crizotinib; first compound 0.08 µM) | relative viability (KN-93 + Crizotinib; first compound 0.253 µM) | relative viability (KN-93 + Crizotinib; first compound 2.53 µM) | relative viability (KN-93 + Crizotinib; first compound 8 µM) | relative viability (KN-93 + Pemetrexed; first compound 0.08 µM) | relative viability (KN-93 + Pemetrexed; first compound 0.253 µM) | relative viability (KN-93 + Pemetrexed; first compound 2.53 µM) | relative viability (KN-93 + Pemetrexed; first compound 8 µM) | relative viability (KN-93 + Decitabine; first compound 0.08 µM) | relative viability (KN-93 + Decitabine; first compound 0.253 µM) | relative viability (KN-93 + Decitabine; first compound 2.53 µM) | relative viability (KN-93 + Decitabine; first compound 8 µM)
1 | EKVX | 0.81 | 1.33 | 1.26 | 0.389 | 0.536 | 0.75 | 0.743 | 0.552 | 0.642 | 0.995 | 0.81 | 0.719 | 0.382 | 0.346 | 0.454 | 0.244 | 0.332 | 0.289 | 0.342 | 0.319
2 | EMC-BAC-2 | 0.908 | 1.12 | 1.12 | 0.58 | 0.373 | 0.355 | 0.389 | 0.337 | 0.773 | 0.792 | 0.772 | 0.573 | 0.452 | 0.484 | 0.497 | 0.437 | 0.996 | 0.98 | 0.969 | 0.693
3 | EPLC-272H | 0.863 | 1.39 | 0.982 | 0.752 | 0.218 | 0.295 | 0.297 | 0.219 | 1.05 | 1.01 | 1.04 | 0.661 | 0.422 | 0.274 | 0.285 | 0.211 | 0.372 | 0.368 | 0.383 | 0.309
4 | H3255 | 0.906 | 0.865 | 0.91 | 0.578 | 0.615 | 0.515 | 0.619 | 0.431 | 0.995 | 0.952 | 0.48 | 0.623 | 0.558 | 0.54 | 0.544 | 0.484 | 0.603 | 0.728 | 0.54 | 0.474
5 | HARA | 1.01 | 1.08 | 1.24 | 0.836 | 0.427 | 0.457 | 0.413 | 0.138 | 1.04 | 1.51 | 0.946 | 0.51 | 0.292 | 0.29 | 0.282 | 0.247 | 0.572 | 0.554 | 0.641 | 0.506
6 | HCC-15 | 0.838 | 1.27 | 1.17 | 0.634 | 0.558 | 0.722 | 0.636 | 0.527 | 0.664 | 0.961 | 0.795 | 0.682 | 0.218 | 0.209 | 0.21 | 0.215 | 0.546 | 0.62 | 0.707 | 0.309
7 | HCC-44 | 0.834 | 0.801 | 1.03 | 0.751 | 0.547 | 0.482 | 0.555 | 0.391 | 0.732 | 0.785 | 0.858 | 0.502 | 0.652 | 0.615 | 0.667 | 0.678 | 1.05 | 0.929 | 1.03 | 0.915
8 | HCC-78 | 0.462 |  | 0.37 | 0.531 | 0.388 | 0.315 | 0.387 | 0.339 | 0.336 | 0.312 | 0.37 | 0.312 | 0.816 | 1.02 | 0.911 | 0.935 | 0.724 | 0.676 | 0.709 | 0.747
